Measured values: US20040072790A1, “Safe natural pharmaceutical composition for treating cancer” (priority 2002, published 2004)

Key:
[1] = test system: human cancer cells; assay: Inhibition of tumor cell proliferation; format: cell-based; conditions: 1 μg/ml drug, 72 hours
Description: Human tumor cell lines Hela leukemia HL-60, malignant melanocarcinoma B16, oral epidermoid carcinoma (KB), lung carcinoma (A549), breast carcinoma MCF-7, adenocarcinoma of stomach Animal tumor cell lines Walker carcinoma, LLC-WRC-256, malignant melanoma (RMMI 1846), 3T3, and S-180 sarcoma (CCRF-180). All lines were routinely cultured in the RPMI1640 medium supplemented 20% fetal calf serum. The experiment was carried out in 96 microplate, each well had 5×10^5 cells and given desired concentration of 1 μg /ml (1×10^−6 g/ml) drug Then the plate was incubated at 37° C. in an atmosphere of humidified air enriched with 5 percent carbon dioxide for 72 hours
Inhibition percent rate of tumor cell proliferation was obtained according to the bellow formula [formula]

[2] = test system: lipid peroxidation, liver microsome; assay: Lipid peroxidation in liver microsome (MDA, TBA); format: biochemical, rats; conditions: drug 50 μM, 37° C.
Description: The liver microsome (1 mg protein) in 0.15 M KCl, 0 25 M Tris-HCl buffer, pH 7.5, 2 mμ ADP, 10 μM FeSO4 and Drug B (50 μM) were incubated at 37° C. for 5 min The reactions were terminated after 30 min by added 2 ml thiobarbituric acid (TBA) and content of the malondialdehyde (MDA) formed was determined.

[3] = test system: Human leukemia cells (HL-60); assay: Apoptosis of human leukemia cells; format: cell-based
Description: Human leukemia cells (HL-60) were grown in RPMI Medium 1640 supplemented with 10% (v/v) heat-inactivated FBS (56° C. for 30 min) at 37° C. in a humidified 95% air/5% CO2 atmosphere. Cells were seeded at a level of 2×10^5 cells/ml Cells were allowed to attain a maximum density of 1 2×10^6 cells/ml before being passed by dilution into fresh medium to a concentration of 2×10^5 cells/ml Cell pellets containing 5×10^6 cells were fixed with 2 5% glutaraldehyde in cacodylate buffer (pH 7 4), dehydrated through graded alcohol, and infiltrated with LX-112 epoxy resin. After overnight polymerization at 60° C. 1-μm sections were cut with glass knives using a microtome.
(§1) Cells ([…] were incubated in 10 ml IMDM plus […] heat-inactivated fetal calf serum. Samples were incubated for 24 hours with various concentrations of drugs Control samples received the same amount of media, without drug addition After 24 hours of incubation the samples were pelleted and fixed in ethanol 705 for 15 minutes at 4° C., after three washes in PBS, the cells were treated with PNase I 0.5 mg/ml for 15 minutes at 37° C. The cells were harvested by centrifugation and resuspended in 50 μg/ml propidium iodide in PBS. Analysis (upon acquisition of 10,000-20,000 events) was performed on a FACscan flow cytometer with the FL2 detector in logarithmic mode, using Lysis II software (Becton Dickinson). Apoptotic cells were located in the hypodiploid region of the histogram, due to chromosome condensation and fragmentation
(§2) For evaluation of apoptosis by flow cytometry, cells were fixed and permeabilized in 1% paraformaldehyde and ice-cold 70% ethanol Digoxigenin-dUTP was incorporated at the 3′OH ends of the fragmented DNA in the presence of terminal deoxynucleotidyltranserase, and the cells were incubated with FITC-labeled anti-digoxigenin-dUTP and with propidium iodide. Green (apoptotic cells) and orange (total DNA) fluorescence were measured with a FACScan flow cytometer and analyzed with LYSIS It and CELLFIT programs Data were analyzed by Student's t-test P values were considered significant when <0.05.
(§3) Untreated and treated HL-60 cells collected by centrifugation, washed in phosphate buffered saline and re-suspended at a concentration of 5×10^6 cells and 0.1% RNase A. The mixture was incubated at 37° C. for 30 min and then incubated for an additional 30 min at 37° C. Buffer was added and 25 μl of the tube content transferred to the Horizontal 1.5% agarose gel electrophoresis was performed at 2 V/cm DNA in gels visualized under UV light after staining with ethidium Bromide (5 μg/ml)
DNA fragmentation assays DNA cleavage was performed, quantitation of fractional solubilized DNA by diphenylamine assay and the percentage of cells harboring fragmented DNA determined by in labeling techniques For the diphenylamine assay, 5×10^6 cells were lysed in 0 5 mL lysis buffer (5 mmol/L Tris-HCI, 20 mmol/L DTA, and 0 5% Triton X-100, pH 8 0) at 4° C. […] DNA was precipitated with 0.5 N perchloric acid and quantitated using diphenylamine reagent. The cell cycle distribution was determined 4 hours after addition of drug and represents mean±SD of 5 independent experiments
(§4) Apoptosis of HL-60 cells was assessed by changes in cell morphology and by measurement of DNA nicks using the Apop Tag Kkt (Oncor, Gaithersburg, MD). […] These changes are detected on cytospin preparations stained with Diff-Quick Stain Set Apoptotic cells were enumerated in a total of about 300 cells by light microscopy

[4] = test system: L615 transplanted tumor; assay: Growth of transplanted tumor in mice; format: in vivo; conditions: intraperitoneally, other drugs 20 mg/kg, sacrificed on the 12th day
Description: Male mice, weight 20-22 g, were used in the experiment 1×10^7 tumor cells were injected to mouse and other drugs injected intraperitoneally began second day. All mice were sacrificed on the 12th day, isolated the tumor and weighed and calculated the inhibition rate of tumor weight
The effect of other drugs and HHT on the growth of animal transplanted tumor as illustrated by the Table 6 20 mg/kg of other drugs could inhibit the growth of L615 transplanted tumor.

[5] = test system: tyrosine kinase (TK); assay: Tyrosine kinase (TK) assay of HL-60 leukemia cells; format: cell-based, human
Description: Tyrosine kinase (TK) Assay. TK was measured by a modification of the method of Braun et al Briefly, H-60 leukemia cells were plated at a density of 5×10^5 cells in […], and divided control and treatments groups for incubation 24 hours at 37° C. with 5% CO2. The cells were collected by scraping, washed twice with phosphate-buffered saline, and resuspended at density of 10^6 cells/ml in 5 mM HEPESs buffer (pH 7.4). The cells were then resuspended in 1 ml of buffer containing 5 mM HEPES (pH 7.6), 1 mM MgCl2 and ImM EDTA, then placed on ice bath The cell membrane was disrupted by ultra sound and centrifuged at 1,000×g for 10 minutes The supernatant was ultra centrifuged at 30,000×g for 30 minutes at 4° C. The pellet was resuspended in 0 3 ml of buffer containing 25 mM HEOES, centrifuged at 12,000×g for 5 minutes The resulting supernatant was used for TK assay. Content of protein was determined 10 μg of protein placed in 20 mM HEPES (pH 7 6), 15 mM MgCl2, 10 nM ZnCl2 and 5% (v/v) nonidet P-40, with or without substrate [glutamic acid (GT), mg/ml]. After 5 minutes incubation at 25° C., the reaction was initiated by the addition of 25 μM [γ^32P] ATP (3 ci/mmol) After 10 minutes, the reaction was stopped by the addition of 20 mM cold ATP. 50 μl of the mixtures were spotted on glass microfiber filter discs and washed three times with cold trichloroacetic acid (TCA), contained 1 mM sodium pyrophosphate Air dried. Radioactivity was determined by liquid scintillation spectrometry. The net TK activity was determined after correcting for endogenous TK activity

[6] = test system: gastric cancer cells; assay: Diversion of gastric cancer cells, NBT; format: cell-based
Description: The gastric cancer cells and normal cells were cultured in PRMI 1640 medium supplement with 10% FCS serum Other method is similar to example 10

[7] = test system: NNK-induced pulmonary adenomas; assay: NNK-induced lung tumorigenesis; format: in vivo; conditions: mice, drug by injection 20 mg/kg daily, 10 μmol NNK i.p., sixteen weeks
Description: Every group had 20 mice For treatment group, each mouse was gave Drug by injection at dose of 20 mg/kg daily. For control group, each mouse was gave same volume of physiological saline Three days later, mice were gave 10 μmol NNK (in 0.1 ml saline) by i.p injection. Sixteen weeks after these treatments the mice were killed and pulmonary adenomas were counted The statistical significance of bioassay data was determined by student's test.

[8] = test system: HL-60 cells; assay: Diversion (differentiation) of human leukemic cells, NBT reduction; format: cell-based; conditions: IND, MAT, YLE, LIK, APN and PYE 50 ng/ml, higher NBT (%) means higher normal cells
Description: HL-60 cells were established from a patient with acute myeloid leukemia. The cells were cultured in culture flasks with RPMI plus 10% FCS
Differentiation of HL-60 cells was assessed by their abilities to produced superoxide as measured by reduction of NBT, by NSE staining and by morphology as detected on cytospin preparations stained with Diff-Quick stain Set, and by analysis of membrane-bound differentiation markers with two-color immunofluorescence Briefly, cells were preincubated at 4° C. for 60 min in 10% human AB serum and then with FITC-conjugated mouse IgGI isotype control Analysis of fluorescence was performed on a flow cytometer.
NBT % indicated percentage of normal cells

[9] = Toxic doses for mice (repeated injection); format: in vivo; conditions: 38 normal mice, injection 2 mg/kg/day×5, observation period of 5 days
Description: Toxic doses for dogs 0 16 mg/kg/day×7 of HHT was established as the toxic doses. Toxic doses for mice In 38 normal mice after injection of HHT of 2 mg/kg/day×5 with the observation period of 5 days about 50% of the mice died.

[10] = test system: carcinogen-DNA binding; assay: Inhibition of carcinogen-DNA binding; format: cell-based
Description: Cells were maintained in 75-cm^2 tissue culture flask with media supplemented with retinoic acid (0 1 μg/ml) and epinephrine (0 5 μg/ml) The cells were passage when they reached approximately 80% confluence and were maintained at 37° C. in 5% CO2. Cells were plated at a density of 5×10^5 cells/well in 6-well tissue culture plates and allowed to incubated for 18 h at 37° C. in 5% CO2 Following incubation, the DNA was harvested and resuspended in Tris-EDTA buffer RNA was removed by treating with RNase T1 and RNase A at 37° C. for 1 h. An aliquot was used for determining the DNA content by the absorbency at 260 nm, and the rest of the sample was used to determine the radioactivity; the percentage inhibition of carcinogen-DNA binding was determined by measuring the cpm/mg of DNA in the carcinogen

[11] = test system: Normal cells; assay: Apoptosis of normal cells; format: cell-based
Description: as §1, §2, §3
DNA fragmentation assays DNA cleavage was performed, quantitation of fractional solubilized DNA by diphenylamine assay and the percentage of cells harboring fragmented DNA determined by in labeling techniques For the diphenylamine assay, 5×10^6 cells were lysed in 0 5 mL lysis buffer (5 mmol/L Tris-HCI, 20 mmol/L DTA, and 0 5% Triton X-100, pH 8 0) at 4° C. Lysates were centrifuged (15,000 g) for separation of high molecular weight DNA (pellet) and DNA cleavage products (supernatant). DNA was precipitated with 0.5 N perchloric acid and quantitated using diphenylamine reagent. The cell cycle distribution was determined 4 hours after addition of drug and represents mean±SD of 5 independent experiments
as §4

In the case of Homoharringtonine [HHT], the “Inhibition (%) of growth of cancer cells” value [1] is reported as 73.8 ± 8.1%, the “Nmoles MDA/mg protein” value [2] is reported as 8.5 ± 1.0 Nmoles MDA/mg protein and the “Apoptosis (%)” value ([3]; Human leukemia cell, HHT 50 ng/ml alone or with 50 ng/ml of the other drug (Table 4)) is reported as 42.8 ± 5.2%. For the same substance, the “Apoptosis (%)” value ([3]; Human leukemia cells, HHT 10 ng/ml) was 33.8 ± 4.8 %, the “Apoptosis (%)” value ([3]; Human leukemia cells, HHT 50 ng/ml) was 42.8 ± 5.2 % and the “Apoptosis (%)” value ([3]; Human leukemia cells, HHT 100 ng/ml) was 60.2 ± 8.9 %. The “Apoptosis (%)” value ([3]; Human leukemia cells, HHT 500 ng/ml) was 92.0 ± 10.8 %, the “Inhibition (%) of transplanted tumor (tumor weight)” value [4] was 68 ± 7.2% and the “inhibition of TK activity” value ([5]; HL-60, 10^−8 M) was 12.2%. For the same substance, the “% of control activity (TK)” value ([5]; HL-60 leukemia cells, 10^−6 M, 24 hours) was 0.6%, the “% of control activity (TK)” value ([5]; HL-60 leukemia cells, 10^−7 M, 24 hours) was 21.5 ± 4.0% and the “% of control activity (TK)” value ([5]; HL-60 leukemia cells, 10^−8 M, 24 hours) was 87.8 ± 12%. The “% of control activity (TK)” value ([5]; Table 8, HHT alone or with other drug, concentration not given) was 21.5 ± 4.0%, the “NBT (%)” value [6] was 58 ± 8.9 % and the “Tumor incidence (%)” value [7] was 35.8 ± 4.5%. For the same substance, the “NBT (%)” value [8] was 65 ± 7.0 %, the mice died [9] was “about 50%” and the “Inhibition (%) of carcinogen-DNA binding” value [10] was 56.8 ± 6.2%. For the same substance, the “Apoptosis (%)” value ([11]; HHT 10 ng/ml) was 16.5 ± 2.0 %, the “Apoptosis (%)” value ([11]; HHT 50 ng/ml) was 18.5 ± 2.5 % and the “Apoptosis (%)” value ([11]; HHT 50 ng/ml alone or with 50 ng/ml of the other drug (Table 4)) was 18.5 ± 2.5%. The “Apoptosis (%)” value ([11]; HHT 100 ng/ml) was 22.0 ± 3.5 % and the “Apoptosis (%)” value ([11]; HHT 500 ng/ml) was 29.5 ± 5.2 %.
